Measured values: US12303497B2, “Anti-androgens for the treatment of metastatic castration-sensitive prostate cancer” (priority 2019, dated 2025)

Tested on: patients with metastatic castration-sensitive prostate cancer (mCSPC)
[1] = within 30 days of last dose, n = 524

In the case of `CNC(=O)c1ccc(N2C(=S)N(c3cnc(C#N)c(C(F)(F)F)c3)C(=O)C23CCC3)cc1F` [Apalutamide, 4-[7-(6-cyano-5-trifluoromethylpyridin-3-yl)-8-oxo-6-thioxo-5,7-diazaspiro[3.4]oct-5-yl]-2-fluoro-N-methylbenzamide], the “AE leading to dose interruption: Syncope” value (Grade ≥3) is reported as 1 (0.2) no. (%), the “AE leading to dose interruption: Thrombocytopenia” value (Grade ≥3) is reported as 0 no. (%) and the “AE leading to dose interruption: Tongue ulceration” value (Grade ≥3) is reported as 0 no. (%). For the same compound, the “AE leading to dose interruption: Urethral stenosis” value (Grade ≥3) was 0 no. (%), the “AE leading to dose interruption: Urinary incontinence” value (Grade ≥3) was 0 no. (%) and the “AE leading to dose interruption: Urinary retention” value (Grade ≥3) was 2 (0.4) no. (%). The “AE leading to dose interruption: Urinary tract obstruction” value (Grade ≥3) was 1 (0.2) no. (%), the “AE leading to dose interruption: Vertigo” value (Grade ≥3) was 1 (0.2) no. (%) and the “AE leading to dose interruption: Vomiting” value (Grade ≥3) was 0 no. (%). For the same compound, the “AE leading to dose interruption: Weight increased” value (Grade ≥3) was 0 no. (%), the “AE leading to dose reduction: Aspartate aminotransferase or alanine aminotransferase increased” value (Grade ≥3) was 0 no. (%) and the “AE leading to dose reduction: Asthenia” value (Grade ≥3) was 0 no. (%). The “AE leading to dose reduction: Cognitive disorder” value (Grade ≥3) was 1 (0.2) no. (%), the “AE leading to dose reduction: Dehydration” value (Grade ≥3) was 0 no. (%) and the “AE leading to dose reduction: Fatigue” value (Grade ≥3) was 2 (0.4) no. (%). The “AE leading to dose reduction: General physical health deterioration” value (Grade ≥3) was 1 (0.2) no. (%), the “AE leading to dose reduction: Headache” value (Grade ≥3) was 0 no. (%) and the “AE leading to dose reduction: Hot flush” value (Grade ≥3) was 0 no. (%). The “AE leading to dose reduction: Hypertension” value (Grade ≥3) was 1 (0.2) no. (%), the “AE leading to dose reduction: Lethargy” value (Grade ≥3) was 0 no. (%) and the “AE leading to dose reduction: Neutropenia” value (Grade ≥3) was 2 (0.4) no. (%). For the same compound, the “AE leading to dose reduction: Pain” value (Grade ≥3) was 0 no. (%), the “AE leading to dose reduction: Performance status decreased” value (Grade ≥3) was 0 no. (%) and the “AE leading to dose reduction: Rash (grouped term)” value (Grade ≥3) was 11 (2.1) no. (%). For the same compound, the “AE leading to dose reduction: Vertigo” value (Grade ≥3) was 1 (0.2) no. (%), the “AE leading to dose reduction: Weight decreased” value (Grade ≥3) was 1 (0.2) no. (%) and the “AE of special interest: Fall” value (Grade ≥3) was 4 (0.8) no. (%). For the same compound, the “AE of special interest: Fracture (grouped term)” value (Grade ≥3) was 7 (1.3) no. (%), the “AE of special interest: Hypothyroidism (grouped term)” value (Grade ≥3) was 0 no. (%) and the “AE of special interest: Rash (grouped term)” value (Grade ≥3) was 33 (6.3) no. (%). The “AE of special interest: Seizure (grouped term)” value (Grade ≥3) was 1 (0.2) no. (%), the “Patients with treatment-emergent adverse events leading to discontinuation” value (Grade ≥3) was 26 (5.0) no. (%) and the “Patients with treatment-emergent adverse events leading to dose reduction” value (Grade ≥3) was 19 (3.6) no. (%). For the same compound, the “Patients with treatment-emergent events leading to dose interruption” value (Grade ≥3) was 68 (13.0) no. (%), the “TEAE: Anemia” value (Grade ≥3) was 9 (1.7) no. (%) and the “TEAE: Arthralgia” value (Grade ≥3) was 2 (0.4) no. (%). For the same compound, the “TEAE: Asthenia” value (Grade ≥3) was 10 (1.9) no. (%), the “TEAE: Back pain” value (Grade ≥3) was 12 (2.3) no. (%) and the “TEAE: Blood alkaline phosphatase increased” value (Grade ≥3) was 2 (0.4) no. (%). The “TEAE: Bone pain” value (Grade ≥3) was 6 (1.1) no. (%), the “TEAE: Constipation” value (Grade ≥3) was 0 no. (%) and the “TEAE: Fatigue” value (Grade ≥3) was 8 (1.5) no. (%). The “TEAE: Hot flush” value (Grade ≥3) was 0 no. (%), the “TEAE: Hypertension” value (Grade ≥3) was 44 (8.4) no. (%) and the “TEAE: Pain in extremity” value (Grade ≥3) was 3 (0.6) no. (%). The “TEAE: Pruritus” value (Grade ≥3) was 1 (0.2) no. (%), the “TEAE: Rash generalized” value (Grade ≥3) was 14 (2.7) no. (%) and the “TEAE: Urinary retention” value (Grade ≥3) was 0 no. (%). For the same compound, the “TEAE: Weight increased” value (Grade ≥3) was 6 (1.1) no. (%), the “Patients who died as the result of an adverse event” value (Ten patients) was 1.9% and the Hypothyroidism reported (all events were grade 1 or 2) was 6.5%. The “AE leading to discontinuation: Suicide” value (in vivo) was 0 no. (%), the “AE leading to dose interruption: Acute kidney injury” value (in vivo) was 1 (0.2) no. (%) and the “AE leading to dose interruption: Acute respiratory failure” value (in vivo) was 1 (0.2) no. (%). For the same compound, the “AE leading to dose interruption: Allergy to chemicals” value (in vivo) was 1 (0.2) no. (%), the “AE leading to dose interruption: Anemia” value (in vivo) was 0 no. (%) and the “AE leading to dose interruption: Angina unstable” value (in vivo) was 0 no. (%). The “Frequency of grade 3 and 4 events” value (in vivo) was 42.2%, the “Frequency of serious adverse events” value (in vivo) was 19.8% and the “Grade 3 rashes” value (in vivo) was 6.3%. For the same compound, the “Ischemic events led to death” value (in vivo) was “two”, the “Ischemic heart disease reported” value (in vivo) was 4.4% and the “Median time to onset of rash” value (in vivo) was 81 days. The “Most common event considered related to apalutamide: rash of any type” value (in vivo) was 6.3%, the “Rash of any grade (treatment-emergent skin rash)” value (in vivo) was 27.1% and the “Stevens-Johnson syndrome or toxic epidermal necrolysis” value (in vivo) was “No Stevens-Johnson syndrome or toxic epidermal necrolysis was reported”. For the same compound, the “All deaths within 30 days of last dose” value (investigator reported, n = 524) was 18 (3.4) no. (%), the “AE leading to death: Acute coronary syndrome” value (n = 524) was 0 no. (%) and the “AE leading to death: Acute kidney injury” value (n = 524) was 2 (0.4) no. (%). The “AE leading to death: Acute myocardial infarction” value (n = 524) was 1 (0.2) no. (%), the “AE leading to death: Cardiac failure” value (n = 524) was 0 no. (%) and the “AE leading to death: Cardio-respiratory arrest” value (n = 524) was 1 (0.2) no. (%). For the same compound, the “AE leading to death: Cardiogenic shock” value (n = 524) was 1 (0.2) no. (%), the “AE leading to death: Cerebrovascular accident” value (n = 524) was 1 (0.2) no. (%) and the “AE leading to death: Death” value (n = 524) was 0 no. (%). The “AE leading to death: Hypothermia” value (n = 524) was 0 no. (%), the “AE leading to death: Intracranial hemorrhage” value (n = 524) was 0 no. (%) and the “AE leading to death: Myocardial infarction” value (n = 524) was 1 (0.2) no. (%). For the same compound, the “AE leading to death: Pulmonary embolism” value (n = 524) was 0 no. (%), the “AE leading to death: Respiratory failure” value (n = 524) was 1 (0.2) no. (%) and the “AE leading to death: Sepsis” value (n = 524) was 0 no. (%). For the same compound, the “AE leading to death: Subdural hemorrhage” value (n = 524) was 0 no. (%), the “AE leading to death: Sudden cardiac death” value (n = 524) was 1 (0.2) no. (%) and the “AE leading to death: Sudden death” value (n = 524) was 0 no. (%). For the same compound, the “AE leading to death: Suicide” value (n = 524) was 0 no. (%), the “AE leading to death: Urosepsis” value (n = 524) was 0 no. (%) and the “AE leading to death: Vascular rupture” value (n = 524) was 0 no. (%). For the same compound, the “Adverse event leading to death” value (n = 524) was 10 (1.9) no. (%), the Any adverse event (n = 524) was 507 (96.8) no. (%) and the “Any adverse event leading to treatment discontinuation” value (n = 524) was 42 (8.0) no. (%). For the same compound, the “Any serious adverse event” value (n = 524) was 104 (19.8) no. (%), the “Grade 3 or 4 adverse event” value (n = 524) was 221 (42.2) no. (%) and the “Patients with adverse events as the primary reason for discontinuation” value (n = 525) was 39 (7.4) no. (%). The “Patients with adverse events leading to discontinuation” value (n = 525 (Table 5)) was 42 (8.0) no. (%), the “Death due to adverse event” value [1] was 10 (1.9) no. (%) and the “Death due to prostate cancer” value [1] was 8 (1.5) no. (%).
